IC50 data for 73 compounds are collected here from patent publication US9440952B2, “Compounds inhibiting leucine-rich repeat kinase enzyme activity” (Merck Sharp & Dohme Corp., priority 2013, dated 2016).

In the first experiment the target is T1, LRRK2(G2019S mutation, GST-LRRK2(amino acids 970-2527)) (Homo sapiens, UniProt Q5S007, G2019S).
T1 construct: GST-LRRK2(amino acids 970-2527); GST (N); purchased Life Technologies Corporation
T1 sequence (Q5S007 970-2527 G2019S): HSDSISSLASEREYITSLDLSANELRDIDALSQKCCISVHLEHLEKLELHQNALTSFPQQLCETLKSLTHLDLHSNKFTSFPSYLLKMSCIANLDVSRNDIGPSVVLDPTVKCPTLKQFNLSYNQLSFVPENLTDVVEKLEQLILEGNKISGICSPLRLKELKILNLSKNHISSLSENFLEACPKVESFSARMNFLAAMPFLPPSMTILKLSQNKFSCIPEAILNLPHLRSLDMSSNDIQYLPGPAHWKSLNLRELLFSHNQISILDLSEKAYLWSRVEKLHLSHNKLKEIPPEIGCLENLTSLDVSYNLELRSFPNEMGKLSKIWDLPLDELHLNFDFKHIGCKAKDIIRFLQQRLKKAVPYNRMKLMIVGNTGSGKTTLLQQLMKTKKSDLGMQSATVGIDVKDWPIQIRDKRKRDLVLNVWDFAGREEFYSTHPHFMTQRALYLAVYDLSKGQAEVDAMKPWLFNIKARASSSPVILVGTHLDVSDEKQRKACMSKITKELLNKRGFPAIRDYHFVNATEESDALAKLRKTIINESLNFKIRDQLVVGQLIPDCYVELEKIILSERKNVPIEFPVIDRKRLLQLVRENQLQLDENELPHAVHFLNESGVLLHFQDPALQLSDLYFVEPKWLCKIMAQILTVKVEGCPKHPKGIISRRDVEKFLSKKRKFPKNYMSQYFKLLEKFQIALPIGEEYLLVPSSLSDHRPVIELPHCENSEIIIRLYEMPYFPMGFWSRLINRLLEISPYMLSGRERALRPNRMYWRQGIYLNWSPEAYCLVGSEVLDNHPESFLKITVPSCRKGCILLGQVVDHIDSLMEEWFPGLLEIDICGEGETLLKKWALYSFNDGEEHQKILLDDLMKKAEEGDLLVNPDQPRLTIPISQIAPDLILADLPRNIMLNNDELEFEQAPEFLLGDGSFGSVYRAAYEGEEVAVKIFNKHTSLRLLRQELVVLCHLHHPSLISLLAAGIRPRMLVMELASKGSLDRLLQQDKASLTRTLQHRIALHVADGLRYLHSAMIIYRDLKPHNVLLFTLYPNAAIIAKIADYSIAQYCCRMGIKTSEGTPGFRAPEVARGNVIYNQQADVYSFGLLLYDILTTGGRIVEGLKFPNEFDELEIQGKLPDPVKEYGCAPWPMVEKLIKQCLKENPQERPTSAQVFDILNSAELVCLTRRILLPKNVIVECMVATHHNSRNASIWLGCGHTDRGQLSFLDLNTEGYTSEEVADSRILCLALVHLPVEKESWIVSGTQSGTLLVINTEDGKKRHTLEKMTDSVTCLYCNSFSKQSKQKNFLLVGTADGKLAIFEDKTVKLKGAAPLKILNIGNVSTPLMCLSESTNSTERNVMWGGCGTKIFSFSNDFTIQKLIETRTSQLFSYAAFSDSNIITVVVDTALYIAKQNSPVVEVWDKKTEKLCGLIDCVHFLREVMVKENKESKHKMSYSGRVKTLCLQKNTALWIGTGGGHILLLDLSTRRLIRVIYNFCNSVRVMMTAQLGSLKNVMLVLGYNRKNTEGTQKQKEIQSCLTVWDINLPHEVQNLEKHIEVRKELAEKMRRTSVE
Description: LRRK2 Km ATP LanthaScreen Assay. The format is biochemical. The settings on record: Km ATP LanthaScreen Assay; LRRK2 G2019S; mean IC50 values; Examples 185-215; read-out: LRRK2 IC5). On the procedure: Unless otherwise noted, all LRRK2 IC50 data presented in tables refers to the LRRK2 Km ATP LanthaScreen™ Assay that is described in the Biological Assay section.
The data presented for the 5 mM and Km ATP LanthaScreen™ Assay represents mean IC50 values based on several test results and may have reasonable. deviations depending on the specific conditions and reagents used. Reagents for the LRRK2 5 mM and Km ATP LanthaScreen™ Assay were purchased from Life Technologies Corporation.
Results are analysed using Assay Data Analyzer.
In general terms: TR-FRET usually uses a lanthanide donor and a delayed reading to cut background.
Turning to `CCc1nnc2n1CCN(c1cc(-c3n[nH]c4ccc(OC(C)C)cc34)ccn1)C2` [Example 195], the IC50 stood at 7.2 nM.

`CC(C)Oc1ccc2[nH]nc(-c3ccnc(N4CC(F)(F)C4)c3)c2c1` [Example 213]: the IC50 amounted to 16.7 nM.

Take `Cc1nonc1N1CCN(c2cc(-c3n[nH]c4ccc(OC(C)C)cc34)ccn2)CC1` [Example 207]: the IC50 amounted to 20.8 nM.

Regarding `CC(C)Oc1ccc2[nH]nc(-c3ccnc(N4CCN(C5CC5)CC4)c3)c2c1` [Example 210], the IC50 was found to be 7.4 nM.

`Cc1nnc(C2CCN(c3cc(-c4n[nH]c5ccc(OC(C)C)cc45)ccn3)CC2)o1` [Example 215]: the IC50 came out at 6 nM.

As for `CC(C)Oc1ccc2[nH]nc(-c3ccnc(N4CCN(c5ncc6ccccc6n5)CC4)c3)c2c1` [Example 212], the IC50 came out at 70.6 nM.

`CC(C)Oc1ccc2[nH]nc(-c3ccnc(N4CCCC(c5ccncn5)C4)c3)c2c1` (stereo not shown) [Example 205]: the IC50 worked out at 6.4 nM.

Regarding `CC(C)Oc1ccc2[nH]nc(-c3ccnc(N4CCCC(c5nncn5C)C4)c3)c2c1` (stereo not shown) [Example 193], the IC50 was 6.2 nM.

In the case of `CC(C)Oc1ccc2[nH]nc(-c3ccnc(N4CCn5nc(C6CC6)nc5C4)c3)c2c1` [Example 214], the IC50 is 15.4 nM.

Consider `Cc1nc2c(o1)CN(c1cc(-c3n[nH]c4ccc(OC(C)C)cc34)ccn1)CC2` [Example 198], for which the IC50 came out at 9.2 nM.

The same experiment, now with this note: Km ATP LanthaScreen Assay; LRRK2 G2019S; mean IC50 values; read-out: LRRK2 IC50.
As for `FC(F)(F)Oc1ccc2[nH]nc(-c3ccnc(N4CCCC4)c3)c2c1` [Example 233], the IC50 was found to be 130 nM.

`CC(C)Oc1ccc2[nH]nc(-c3ccnc(NC(=O)C4CC(F)(F)C4)c3)c2c1` [Example 166]: the IC50 is 73.5 nM.

Take `CN1CCC(CNc2cc(-c3n[nH]c4ccccc34)ccn2)C1` (stereo not shown) [Example 54]: the IC50 was 47 nM.

As for `COc1cnccc1-c1ccc2[nH]nc(-c3ccnc(N4CCOCC4)c3)c2c1` [Example 102], the IC50 worked out at 0.2 nM.

As to `CC(C)Oc1ccc2[nH]nc(-c3ccnc(NCC4CC4)c3)c2c1` [Example 134], the IC50 was found to be 2 nM.

Consider `CC(C)Oc1ccc2[nH]nc(-c3ccnc(NC(=O)C4CCOCC4)c3)c2c1` [Example 164], for which the IC50 turned out to be 27.7 nM.

Consider `c1ccc2c(-c3ccnc(N4CCC(CN5CCOCC5)CC4)c3)n[nH]c2c1` [Example 40], for which the IC50 was determined as 28 nM.

`CCc1nnc2n1CCN(c1cc(-c3n[nH]c4ccc(OC(F)(F)F)cc34)ccn1)C2` [Example 249]: the IC50 was determined as 190 nM.

On to `CN1CCN(c2cc(-c3n[nH]c4ccc(-c5ccnc(O)c5)cc34)ccn2)CC1` [Example 123], for which the IC50 stood at 2.7 nM.

Turning to `O=C1CN(c2cc(-c3n[nH]c4ccccc34)ccn2)CCN1` [Example 49], the IC50 turned out to be 23 nM.

For `CS(=O)(=O)N1CCN(c2cc(-c3n[nH]c4ccccc34)ccn2)CC1` [Example 18], the IC50 was 17 nM.

Regarding `CN(C)C(=O)CN1CCN(c2cc(-c3n[nH]c4ccccc34)ccn2)CC1` [Example 65], the IC50 turned out to be 6.8 nM.

For `FC(F)=CCCOc1ccc2[nH]nc(-c3ccnc(N4CCOCC4)c3)c2c1` [Example 81], the IC50 turned out to be 4.8 nM.

Consider `COc1ccc(C2CC2C(=O)Nc2cc(-c3n[nH]c4ccc(OC(C)C)cc34)ccn2)cc1` (stereo not shown) [Example 159], for which the IC50 is 782 nM.

Consider `OC1(c2ccncc2)CCN(c2cc(-c3n[nH]c4ccccc34)ccn2)CC1` [Example 25], for which the IC50 is 21 nM.

As for `CC(C)Oc1ccc2[nH]nc(-c3ccnc(NC(=O)CC4COCCO4)c3)c2c1` (stereo not shown) [Example 168], the IC50 was determined as 33.4 nM.

Take `FC(F)(F)Oc1ccc2[nH]nc(-c3ccnc(N4CCN(c5ncccn5)CC4)c3)c2c1` [Example 235]: the IC50 was determined as 476 nM.

Regarding `COC1CN(c2cc(-c3n[nH]c4ccc(OC(F)(F)F)cc34)ccn2)C1` [Example 246], the IC50 amounted to 289 nM.

In the case of `N#CCCNCc1ccc2[nH]nc(-c3ccnc(N4CCOCC4)c3)c2c1` [Example 93], the IC50 came out at 30 nM.

Regarding `CC(C)Oc1ccc2[nH]nc(-c3ccnc(N4C5CCC4COC5)c3)c2c1` [Example 282], the IC50 came out at 7.7 nM.

On to `Cc1nc(C)c(CC(=O)Nc2cc(-c3n[nH]c4ccc(OC(C)C)cc34)ccn2)s1` [Example 163], for which the IC50 came to 34.9 nM.

Consider `CO[C@H]1CN(c2cc(-c3n[nH]c4ccc(OC(F)(F)F)cc34)ccn2)C[C@@H]1O` [Example 238], for which the IC50 came to 165 nM.

`c1ccc(N2CCN(c3cc(-c4n[nH]c5ccccc45)ccn3)CC2)cc1` [Example 11]: the IC50 came to 49 nM.

With `CC(C)Oc1ccc2[nH]nc(-c3ccnc(N4C[C@@H]5C[C@H]4CO5)c3)c2c1` [Example 176], the IC50 is 7.1 nM.

With `CN(C)[C@@H]1CCN(c2cc(-c3n[nH]c4ccccc34)ccn2)C1` [Example 35], the IC50 amounted to 28 nM.

Regarding `FC1CCN(CCCNc2cc(-c3n[nH]c4ccccc34)ccn2)C1` (stereo not shown) [Example 62], the IC50 is 46 nM.

Consider `c1cc(-c2n[nH]c3ccc(OCC4CCCO4)cc23)cc(N2CCOCC2)n1` (stereo not shown) [Example 83], for which the IC50 came out at 5.4 nM.

`c1ccc2c(-c3ccnc(N4CCC(N5CCOCC5)CC4)c3)n[nH]c2c1` [Example 27]: the IC50 came to 32 nM.

In the case of `CN(Cc1ccc2[nH]nc(-c3ccnc(N4CCOCC4)c3)c2c1)C1CCCC1` [Example 92], the IC50 worked out at 54 nM.

Consider `O=C(O)[C@@H]1CCCN(c2cc(-c3n[nH]c4ccccc34)ccn2)C1` [Example 52], for which the IC50 came to 31 nM.

On to `CCOc1ccc2[nH]nc(-c3ccnc(N4CC(C#N)(c5ccccc5)C4)c3)c2c1` [Example 219], for which the IC50 came to 70 nM.

Consider `Cc1nonc1CC(=O)Nc1cc(-c2n[nH]c3ccc(OC(C)C)cc23)ccn1` [Example 161], for which the IC50 stood at 32 nM.

For the compound `CC(O)c1ccc2[nH]nc(-c3ccnc(N4CCOC(CCO)C4)c3)c2c1` (stereo not shown) [Example 127], the IC50 came to 17 nM.

Turning to `CN(C)c1cc(-c2n[nH]c3ccccc23)ccn1` [Example 30], the IC50 came to 33 nM.

Consider `CC(C)CCNc1cc(-c2n[nH]c3ccc(Nc4cccc(S(C)(=O)=O)c4)cc23)ccn1` [Example 110], for which the IC50 came to 83 nM.

As for `FC1(F)CN(c2cc(-c3n[nH]c4ccc(OC(F)(F)F)cc34)ccn2)C1` [Example 247], the IC50 is 369 nM.

For `CC(C)Oc1ccc2[nH]nc(-c3ccnc(NC4CC4)c3)c2c1` [Example 137], the IC50 was 24.3 nM.

Regarding `COC1CCCN(c2cc(-c3n[nH]c4ccc(OC(C)C)cc34)ccn2)C1` (stereo not shown) [Example 138], the IC50 was determined as 11.4 nM.

Regarding `c1ccc2c(-c3ccnc(N4CCN(CCCN5CCOCC5)CC4)c3)n[nH]c2c1` [Example 53], the IC50 is 18 nM.

With `FC1(F)CCN(c2cc(-c3n[nH]c4ccccc34)ccn2)CC1` [Example 28], the IC50 was determined as 57 nM.

Consider `CC(C)Oc1ccc2[nH]nc(-c3ccnc(NCc4ccccn4)c3)c2c1` [Example 132], for which the IC50 was found to be 2.2 nM.

With `CCOc1ccc2[nH]nc(-c3ccnc(N4CCC5OCCC54)c3)c2c1` (stereo not shown) [Example 220], the IC50 came to 22.6 nM.

Consider `c1ccc2c(-c3ccnc(N4CCCCCC4)c3)n[nH]c2c1` [Example 2], for which the IC50 turned out to be 76 nM.

The experiment is the same for the next values; noted with them: Km ATP LanthaScreen; mean IC50 of several tests; read-out: LRRK2 IC50.
In the case of `CCOc1ccc2[nH]nc(-c3ccnc(N[C@H](C)CO)c3)c2c1` [Example 357], the IC50 was determined as 5.5 nM.

Take `c1cc(-c2n[nH]c3cc4c(cc23)OCCO4)cc(N2CCOCC2)n1` [Example 394]: the IC50 was determined as 12 nM.

With `COc1ccccc1Nc1cc(-c2n[nH]c3ccc(Nc4cccc(S(C)(=O)=O)c4)cc23)ccn1` [Example 113], the IC50 is 422 nM.

As for `OCCc1cc2c(-c3ccnc(N4CCOCC4)c3)n[nH]c2cc1F` [Example 349], the IC50 was 27 nM.

On to `CCN(c1cccc(C)c1)c1ccc2[nH]nc(-c3ccnc(N4CCOCC4)c3)c2c1` [Example 115], for which the IC50 was found to be 1570 nM.

With `COCCOc1ccc2[nH]nc(-c3ccnc(N4CCOCC4)c3)c2c1` [Example 377], the IC50 was found to be 70 nM.

As to `CC(O)c1ccc2[nH]nc(-c3ccnc(N4CCOCC4)c3)c2c1` (stereo not shown) [Example 126], the IC50 worked out at 9.9 nM.

In the case of `CCOc1ccc2[nH]nc(-c3ccnc(NCCOC)c3)c2c1` [Example 354], the IC50 was 6.2 nM.

As to `c1ccc(Cc2ccc3[nH]nc(-c4ccnc(N5CCOCC5)c4)c3c2)cc1` [Example 116], the IC50 came to 45 nM.

With `Cn1cc(-c2ccc3[nH]nc(-c4ccnc(N5CCOCC5)c4)c3c2)nn1` [Example 340], the IC50 came out at 1.1 nM.

In the case of `Cn1cc(-c2cc3c(-c4ccnc(N5CC(F)C5)c4)n[nH]c3cc2F)cn1` [Ex 353], the IC50 came to 4.6 nM.

For the compound `Oc1ccncc1-c1ccc2[nH]nc(-c3ccnc(N4CCOCC4)c3)c2c1` [Example 118], the IC50 came to 70 nM.

`CC(C)Oc1ccc2[nH]nc(-c3ccnc(N4CCN(C)C(=O)C4)c3)c2c1` [Example 312]: the IC50 was determined as 2.6 nM.

With `CS(=O)(=O)Cc1cc2c(-c3ccnc(N4CCOCC4)c3)n[nH]c2cc1F` [Example 372], the IC50 turned out to be 1210 nM.

Regarding `c1cc(-c2n[nH]c3ccc(C4CC4)cc23)cc(N2CCOCC2)n1` [Example 387], the IC50 amounted to 6 nM.

Turning to `COc1ccnc(F)c1-c1ccc2[nH]nc(-c3ccnc(N4CCOCC4)c3)c2c1` [Example 117], the IC50 was 3.4 nM.

`CC(C)Oc1ccc2[nH]nc(-c3ccnc(N4CCOC4=O)c3)c2c1` [Example 303]: the IC50 worked out at 16 nM.

`CC(O)Cc1cc2c(-c3ccnc(N4CCOCC4)c3)n[nH]c2cc1F` (stereo not shown) [Example 350]: the IC50 is 76 nM.

Consider `O=C(c1ccccc1)c1ccc2[nH]nc(-c3ccnc(N4CCOCC4)c3)c2c1` [Example 107], for which the IC50 was found to be 3.4 nM.

As for `COc1ccnc(F)c1-c1ccc2[nH]nc(-c3ccnc(N4CCN(C(C)=O)CC4)c3)c2c1` [Example 367], the IC50 is below 0.6 nM.
